The values that follow come from patent US8987195B2 (priority 2012, dated 2015).

Each structure is given as a SMILES string. Read-outs that look alike come from different tables or passages of the source.

Assay [1] relates to HCV genotype 1b replicon. Description: HCV replicon assay, genotype 1b replicon EC50. Format: cell-based, Hepatitis C virus. Conditions: Hepatitis C virus, genotype 1b replicon, read-out: EC50 [gt-1b]. In short, it runs like this:
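Cells harbouring a stable replicon are grown under G418 selection, then plated with test compound in G418-free medium for 24-48 hours. After washing and lysis, RNA or luciferase signal is measured and expressed as percent of DMSO control to give EC50.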
On the technique in general: A replicon is a self-replicating genome or part of one, used to study replication in cells.

Assay [2] deals with HCV NS3/4A protease genotype 1b (Hepatitis C virus genotype 1b, UniProt P26663). As to the kind of experiment: HCV NS3/4A protease time-resolved fluorescence (TRF) assay, Ki against genotype 1b. Format: biochemical. Particulars: IC50 [gt-1b] (nM), NS3/4A genotype 1b, enzyme 0.2 nM. The gist of the method: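 First, protease (genotype 1b 0.2 nM, A156T 0.4 nM, genotype 3a 0.025 nM) is preincubated 30 min with inhibitor. Next, 25 nM TRF substrate starts the reaction, run 2.5 h at room temperature. Finally, europium fluorescence is read and Ki calculated from IC50.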

As for `Cc1nc2ccc(OC(F)(F)F)cc2c2c1O[C@@]1(C[C@H]3C(=O)N[C@]4(C(=O)NS(=O)(=O)C5(C)CC5)C[C@H]4/C=C\CCCCC[C@H](NC(=O)OC4CCCC4)C(=O)N3C1)CC2(F)F` [Example 227, cyclopentyl [(2S,6S,12Z,13aS,14aR,16aS)-1′,1′-difluoro-5′-methyl-14a-{[(1-methylcyclopropyl)sulfonyl]carbamoyl}-5,16-dioxo-9′-(trifluoromethoxy)-1,1′,2′,5,6,7,8,9,10,11,13a,14,14a,15,16,16a-hexadecahydrospiro[cyclopropa[e]pyrrolo[1,2-a][1,4]diazacyclopentadecine-2,3′-pyrano[2,3-c]quinolin]-6-yl]carbamate], the EC50 (in general, the concentration needed to bring the measured effect to its halfway point) in assay [1] (K+ salt) was 28.4 nM. For the same compound, in assay [2] (K+ salt), the IC50 (in general, the concentration that inhibits the measured activity by half) is 0.043 nM.

As to `Cc1nc2ccccc2c2c1O[C@]1(CC2)C[C@H]2C(=O)N[C@]3(C(=O)NS(=O)(=O)C4(C)CC4)C[C@H]3/C=C\CCCCC[C@H](NC(=O)N(C)C)C(=O)N2C1` [Example 228, (2R,6S,12Z,13aS,14aR,16aS)-6-[(dimethylcarbamoyl)amino]-5′-methyl-N-[(1-methylcyclopropyl)sulfonyl]-5,16-dioxo-1,1′,2′,6,7,8,9,10,11,13a,14,15,16,16a-tetradecahydrospiro[cyclopropa[e]pyrrolo[1,2-a][1,4]diazacyclopentadecine-2,3′-pyrano[2,3-c]quinoline]-14a(5H)-carboxamide], the EC50 in assay [1] stood at 6.63 nM. In assay [2], this compound came in with an IC50 of 0.025 nM.

As to `Cc1nc2ccccc2c2c1O[C@]1(CC2)C[C@H]2C(=O)N[C@]3(C(=O)NS(=O)(=O)C4(C)CC4)C[C@H]3/C=C\CCCCC[C@H](NS(C)(=O)=O)C(=O)N2C1` [Example 229, (2R,6S,12Z,13aS,14aR,16aS)-5′-methyl-N-[(1-methylcyclopropyl)sulfonyl]-6-[(methylsulfonyl)amino]-5,16-dioxo-1,1′,2′,6,7,8,9,10,11,13a,14,15,16,16a-tetradecahydrospiro[cyclopropa[e]pyrrolo[1,2-a][1,4]diazacyclopentadecine-2,3′-pyrano[2,3-c]quinoline]-14a(5H)-carboxamide], the EC50 in assay [1] stood at 14.6 nM. For the same compound, the IC50 in assay [2] turned out to be 0.122 nM.

Consider `Cc1nc2ccccc2c2c1O[C@]1(CC2)C[C@H]2C(=O)N[C@]3(C(=O)NS(=O)(=O)C4(C)CC4)C[C@H]3/C=C\CCCCC[C@H](NS(=O)(=O)C3CC3)C(=O)N2C1` [Example 230, (2R,6S,12Z,13aS,14aR,16aS)-6-[(cyclopropylsulfonyl)amino]-5′-methyl-N-[(1-methylcyclopropyl)sulfonyl]-5,16-dioxo-1,1′,2′,6,7,8,9,10,11,13a,14,15,16,16a-tetradecahydrospiro[cyclopropa[e]pyrrolo[1,2-a][1,4]diazacyclopentadecine-2,3′-pyrano[2,3-c]quinoline]-14a(5H)-carboxamide], for which, in assay [1], the EC50 came out at 57.8 nM. Besides, the IC50 in assay [2] was determined as 0.265 nM.

With `Cc1nc2ccc(Cl)cc2c2c1O[C@]1(CC2)C[C@H]2C(=O)N[C@]3(C(=O)NS(=O)(=O)C4(C)CC4)C[C@H]3/C=C\CCCCC[C@H](NC(=O)OCC3CCCC3)C(=O)N2C1` [Example 231, cyclopentylmethyl [(2R,6S,12Z,13aS,14aR,16aS)-9′-chloro-5′-methyl-14a-{[(1-methylcyclopropyl)sulfonyl]carbamoyl}-5,16-dioxo-1,1′,2′,5,6,7,8,9,10,11,13a,14,14a,15,16,16a-hexadecahydrospiro[cyclopropa[e]pyrrolo[1,2-a][1,4]diazacyclopentadecine-2,3′-pyrano[2,3-c]quinolin]-6-yl]carbamate], the EC50 in assay [1] is 4.77 nM. Besides, in assay [2], 0.024 nM corresponded to half-maximal inhibition (IC50).

With `Cc1nc2cc(F)c(F)cc2c2c1O[C@]1(CC2)C[C@H]2C(=O)N[C@]3(C(=O)NS(=O)(=O)C4(C)CC4)C[C@H]3/C=C\CCCCC[C@H](NC(=O)OCC3CCCC3)C(=O)N2C1` [Example 232, cyclopentylmethyl [(2R,6S,12Z,13aS,14aR,16aS)-8′,9′-difluoro-5′-methyl-14a-{[(1-methylcyclopropyl)sulfonyl]carbamoyl}-5,16-dioxo-1,1′,2′,5,6,7,8,9,10,11,13a,14,14a,15,16,16a-hexadecahydrospiro[cyclopropa[e]pyrrolo[1,2-a][1,4]diazacyclopentadecine-2,3′-pyrano[2,3-c]quinolin]-6-yl]carbamate], the EC50 in assay [1] turned out to be 12.9 nM. Moreover, the IC50 in assay [2] came out at 0.085 nM.

For the compound `Cc1nc2cc(Cl)ccc2c2c1O[C@]1(CC2)C[C@H]2C(=O)N[C@]3(C(=O)NS(=O)(=O)C4(C)CC4)C[C@H]3/C=C\CCCCC[C@H](NC(=O)OC(C)(C)C)C(=O)N2C1` [Example 233, tert-butyl [(2R,6S,12Z,13aS,14aR,16aS)-8′-chloro-5′-methyl-14a-{[(1-methylcyclopropyl)sulfonyl]carbamoyl}-5,16-dioxo-1,1′,2′,5,6,7,8,9,10,11,13a,14,14a,15,16,16a-hexadecahydrospiro[cyclopropa[e]pyrrolo[1,2-a][1,4]diazacyclopentadecine-2,3′-pyrano[2,3-c]quinolin]-6-yl]carbamate], in assay [1], the EC50 is 1.51 nM. For the same compound, in assay [2], half-maximal inhibition (IC50) required 0.051 nM.

On to `Cc1nc2cc(Cl)ccc2c2c1O[C@]1(CC2)C[C@H]2C(=O)N[C@]3(C(=O)NS(=O)(=O)C4(C)CC4)C[C@H]3/C=C\CCCCC[C@H](NC(=O)OCC(C)C)C(=O)N2C1` [Example 234, 2-methylpropyl [(2R,6S,12Z,13aS,14aR,16aS)-8′-chloro-5′-methyl-14a-{[(1-methylcyclopropyl)sulfonyl]carbamoyl}-5,16-dioxo-1,1′,2′,5,6,7,8,9,10,11,13a,14,14a,15,16,16a-hexadecahydrospiro[cyclopropa[e]pyrrolo[1,2-a][1,4]diazacyclopentadecine-2,3′-pyrano[2,3-c]quinolin]-6-yl]carbamate], for which the EC50 in assay [1] (K+ salt) amounted to 4.48 nM. Besides, the IC50 in assay [2] (K+ salt) was 0.025 nM.

With `Cc1nc2cc(Cl)ccc2c2c1O[C@]1(CC2)C[C@H]2C(=O)N[C@]3(C(=O)NS(=O)(=O)C4(C)CC4)C[C@H]3/C=C\CCCCC[C@H](NC(=O)OCC(C)(C)C)C(=O)N2C1` [Example 235, 2,2-dimethylpropyl [(2R,6S,12Z,13aS,14aR,16aS)-8′-chloro-5′-methyl-14a-{[(1-methylcyclopropyl)sulfonyl]carbamoyl}-5,16-dioxo-1,1′,2′,5,6,7,8,9,10,11,13a,14,14a,15,16,16a-hexadecahydrospiro[cyclopropa[e]pyrrolo[1,2-a][1,4]diazacyclopentadecine-2,3′-pyrano[2,3-c]quinolin]-6-yl]carbamate], the EC50 in assay [1] (K+ salt) worked out at 4.31 nM. Besides, the IC50 in assay [2] (K+ salt) is 0.027 nM.

As to `Cc1nc2cc(Cl)ccc2c2c1O[C@]1(CC2)C[C@H]2C(=O)N[C@]3(C(=O)NS(=O)(=O)C4(C)CC4)C[C@H]3/C=C\CCCCC[C@H](NC(=O)OC3(C)CC3)C(=O)N2C1` [Example 236, 1-methylcyclopropyl [(2R,6S,12Z,13aS,14aR,16aS)-8′-chloro-5′-methyl-14a-{[(1-methylcyclopropyl)sulfonyl]carbamoyl}-5,16-dioxo-1,1′,2′,5,6,7,8,9,10,11,13a,14,14a,15,16,16a-hexadecahydrospiro[cyclopropa[e]pyrrolo[1,2-a][1,4]diazacyclopentadecine-2,3′-pyrano[2,3-c]quinolin]-6-yl]carbamate], the EC50 in assay [1] (K+ salt) came out at 7.24 nM. For the same compound, in assay [2] (K+ salt), the IC50 was 0.056 nM.

With `Cc1nc2cc(Cl)ccc2c2c1O[C@]1(CC2)C[C@H]2C(=O)N[C@]3(C(=O)NS(=O)(=O)C4(C)CC4)C[C@H]3/C=C\CCCCC[C@H](NC(=O)OC(C)C)C(=O)N2C1` [Example 237, propan-2-yl [(2R,6S,12Z,13aS,14aR,16aS)-8′-chloro-5′-methyl-14a-{[(1-methylcyclopropyl)sulfonyl]carbamoyl}-5,16-dioxo-1,1′,2′,5,6,7,8,9,10,11,13a,14,14a,15,16,16a-hexadecahydrospiro[cyclopropa[e]pyrrolo[1,2-a][1,4]diazacyclopentadecine-2,3′-pyrano[2,3-c]quinolin]-6-yl]carbamate], the EC50 in assay [1] is 5.72 nM. This compound registered an IC50 in assay [2] of 0.04 nM.

`Cc1nc2cc(Cl)ccc2c2c1O[C@]1(CC2)C[C@H]2C(=O)N[C@]3(C(=O)NS(=O)(=O)C4(C)CC4)C[C@H]3/C=C\CCCCC[C@H](NC(=O)OC3CCCC3)C(=O)N2C1` [Example 238, cyclopentyl [(2R,6S,12Z,13aS,14aR,16aS)-8′-chloro-5′-methyl-14a-{[(1-methylcyclopropyl)sulfonyl]carbamoyl}-5,16-dioxo-1,1′,2′,5,6,7,8,9,10,11,13a,14,14a,15,16,16a-hexadecahydrospiro[cyclopropa[e]pyrrolo[1,2-a][1,4]diazacyclopentadecine-2,3′-pyrano[2,3-c]quinolin]-6-yl]carbamate]: in assay [1], the EC50 amounted to 7.72 nM. The compound further displayed an IC50 in assay [2] of 0.02 nM.

Take `Cc1nc2cc(Cl)ccc2c2c1O[C@]1(CC2)C[C@H]2C(=O)N[C@]3(C(=O)NS(=O)(=O)C4(C)CC4)C[C@H]3/C=C\CCCCC[C@H](NC(=O)OC3CCC3)C(=O)N2C1` [Example 239, cyclobutyl [(2R,6S,12Z,13aS,14aR,16aS)-8′-chloro-5′-methyl-14a-{[(1-methylcyclopropyl)sulfonyl]carbamoyl}-5,16-dioxo-1,1′,2′,5,6,7,8,9,10,11,13a,14,14a,15,16,16a-hexadecahydrospiro[cyclopropa[e]pyrrolo[1,2-a][1,4]diazacyclopentadecine-2,3′-pyrano[2,3-c]quinolin]-6-yl]carbamate]: the EC50 in assay [1] is 5.16 nM. This compound displayed an IC50 in assay [2] of 0.068 nM.
